From patent US20220054548A1, “MIRNA FOR USE IN THERAPY” (King's College London, priority 2018, published 2022)
“Also recorded” adds a separate entry of the source.

Assays:
[1] = system: TREGS from WT and TREG^Δ142 mice; experiment: In vitro co-culture suppression assay after in vitro cilostamide treatment; assay type: cell-based, mouse
Excerpt: (§1) In vitro Suppression Assay. CD4^+ T cells were isolated from pooled peripheral lymph nodes and spleens of 5-6 week old mice using CD4 microbeads (Miltenyi Biotec). Cells were labeled with fluorochrome-conjugated anti-mouse antibodies to CD4, CD62L, CD44 and CD25 (eBioscience) and sorted using a BD FACSAria II flow cytometric cell sorter (BD Biosciences) to >95% purity for YFP^+ CD4^+ cells (TREGS) and naïve (CD25−, CD62L+, CD44−) CD4+ T cells (TEFFS). An aliquot of the sorted TREG population was stained with Live-Dead and anti-CD25 antibodies, fixed and permeabilised, then stained for FoxP3 and acquired on a flow cytometer (as before) to confirm purity. The TEFFS were labeled with 10 μM Cell Trace Violet (Life Technologies) according to the manufacturer's instructions, washed and then cultured in a 96-well U-bottom plate alone or with TREGS at ratios ranging from (TEFF:TREG) 1:1 to 32:1, in triplicate, in the presence of anti-CD3 and anti-CD28 Dynabeads (Life Technologies) at a bead:cell ratio of 2:1, and RPMI 1640 cell culture medium (Gibco, Life Technologies) supplemented with 10% fetal calf serum, 50 μM 2-Mercapto-ethanol, 2 μM L-glutamine, pyruvate, HEPES, non-essential amino acids and antibiotics at 37° C. 5% CO2. All 4 possible combinations of TREGS and TEFFS from each group were utilised. After 72 hours in culture, the cells were stained with fluorochrome-conjugated anti-mouse antibodies to Live/Dead (Life Technologies) and then proliferation of the TEFFS was assessed by flow cytometry based on Cell Trace Violet dilution (excluding YFP+ and dead cells). The numbers of non-proliferating cells (events in the first peak) and precursors of proliferating cells were calculated using standard formulae. Percentage suppression (S) of proliferation was calculated using the formula: […]
In vitro Cilostamide treatment. […] They were then cultured in the presence of 10 μM cilostamide (Sigma Aldrich), or equivalent PBS/DMSO control for 48 hours before being washed twice, counted and used in an in vitro co-culture suppression assay, as above. […]

TREG^Δ142 mice = experiment: In vivo cilostamide treatment of TREG^Δ142 mice (weight, survival); parameters: species or system mouse; settings: 6.4 mg/kg intra-peritoneal cilostamide on alternate days from 8 weeks of age
Experimental: In vivo cilostamide treatment. Littermate TREG^Δ142 and WT mice were treated from 8 weeks of age with alternate day intra-peritoneal injections of either 6.4 mg/kg cilostamide (Sigma) in PBS 10% DMSO, or a control solution of PBS 10% DMSO. The mice were weighed every other day and monitored for signs of disease. A proportion of mice were sacrificed after 4 weeks of treatment and TREGS were isolated directly ex vivo for use in an in vitro co-culture suppression assay (as before). A proportion of mice were kept alive for as long as possible (either until they lost more than 15% of their body weight and had to be euthanised, or until the end of the experiment).

miR-142-deficient TREGS = experiment: Co-culture TREG suppression assay ex vivo after 4 weeks of in vivo cilostamide treatment; parameters: species or system mouse; settings: TREGS isolated ex vivo after 4 weeks of cilostamide treatment
Excerpt: as §1, with “The TEFFS were labeled with 10 μM Cell Trace Violet (Life Technologies) according to the manufacturer's instructions, washed and then cultured in a 96-well U-bottom plate alone or with TREGS at ratios ranging from (TEFF:TREG) 1:1 to 32:1, in triplicate, in the presence of anti-CD3 and anti-CD28 Dynabeads (Life Technologies) at a bead:cell ratio of 2:1, and RPMI 1640 cell culture medium (Gibco, Life Technologies) supplemented with 10% fetal calf serum, 50 μM 2-Mercapto-ethanol, 2 μM L-glutamine, pyruvate, HEPES, non-essential amino acids and antibiotics at 37° C. 5% CO2. All 4 possible combinations of TREGS and TEFFS from each group were utilised.” left out
In vivo cilostamide treatment. […] The mice were weighed every other day and monitored for signs of disease. […]

CN(C(=O)CCCOc1ccc2[nH]c(=O)ccc2c1)C1CCCCC1 [cilostamide]
TREG suppressive function (suppression of TEFF proliferation) ([1]; TEFFS pre-treated with cilostamide): No rescue of suppressive function | TREG suppressive function (suppression of TEFF proliferation) ([1]; TREG^Δ142 TREGS pre-treated with cilostamide 10 μM prior to co-culture with untreated TEFFS in the absence of cilostamide): restored the suppressive function; also recorded: no significant difference | TREG suppressive capacity ([1]; WT TREGS treated with cilostamide in vitro, compared with WT TREGS): marginal augmentation of ex vivo suppressive capacity | Lethal autoimmune disease (weight and survival) (TREG^Δ142 mice): prevented lethal autoimmune disease | Suppressive activity of miR-142-deficient TREGS (miR-142-deficient TREGS): fully restored suppressive activity
